# Laboratory results published in patent US4479963A, “1-Carboxyalkanoylindoline-2-carboxylic acids” (Ciba-Geigy Corporation, priority 1982, dated 1984).
# Legend:
# [1] = test system: spontaneous hypertensive rat; test: blood pressure and heart rate in the spontaneous hypertensive rat; type: in vivo
# Procedure: The in vivo lowering effect on the blood pressure is recorded either directly by means of a catheter, for example placed in the dog's femoral artery, or indirectly by sphygmomanometry at the rat's tail, and a transducer, expressing the blood pressure prior and after dosing in mm Hg. Thus, for example, representative members of the compounds of this invention, illustrated by the Examples herein, are very effective in hypertensive rats and dogs at p.o.-doses as low or lower than 50 mg/kg/day.
# [2] = test system: angiotensin I converting enzyme; test: inhibition of pressor response following angiotensin I challenge in normotensive rats; type: in vivo; conditions: rat
# Procedure: The inhibition of said enzyme prevents the generation of angiotensin II from I and, therefore, attenuates any pressure response following an angiotensin I challenge.
# The corresponding in vivo test is performed with male, normotensive rats, which are anesthetized with 100-120 mg/kg i.p. of sodium ethyl-(1-methylpropyl)malonylthiourea. A femoral artery and saphenous vein are cannulated for direct blood pressure measurement and i.v. administration of angiotensin I and compounds of this invention. After the basal blood pressure is stabilized, pressor responses to 3 challenges of 0.33 μg/kg of angiotensin I i.v., in 5 minute intervals, are obtained. Such pressure responses are again obtained 5, 10, 15, 30 and 60 minutes after either i.v., or p.o. administration (stomach tube) of the compounds to be tested, and compared with the initial responses.
# [3] = test system: angiotensin I converting enzyme; test: inhibition of pressor response following angiotensin I challenge in the dog; type: in vivo; conditions: oral dose of 10 mg/Kg
# [4] = biological target: T1, angiotensin-converting enzyme (Oryctolagus cuniculus, UniProt P12822); test: in vitro inhibition of the angiotensin-converting enzyme; type: biochemical, rabbit; conditions: hippuryl-histidyl-leucine substrate, 37°, 30 minutes; enzyme from lungs of adult male rabbits
# T1 construct: freshly prepared from lungs of adult male rabbits; from tissue; host or cells: lungs of adult male rabbits
# T1 sequence (P12822 34-1310): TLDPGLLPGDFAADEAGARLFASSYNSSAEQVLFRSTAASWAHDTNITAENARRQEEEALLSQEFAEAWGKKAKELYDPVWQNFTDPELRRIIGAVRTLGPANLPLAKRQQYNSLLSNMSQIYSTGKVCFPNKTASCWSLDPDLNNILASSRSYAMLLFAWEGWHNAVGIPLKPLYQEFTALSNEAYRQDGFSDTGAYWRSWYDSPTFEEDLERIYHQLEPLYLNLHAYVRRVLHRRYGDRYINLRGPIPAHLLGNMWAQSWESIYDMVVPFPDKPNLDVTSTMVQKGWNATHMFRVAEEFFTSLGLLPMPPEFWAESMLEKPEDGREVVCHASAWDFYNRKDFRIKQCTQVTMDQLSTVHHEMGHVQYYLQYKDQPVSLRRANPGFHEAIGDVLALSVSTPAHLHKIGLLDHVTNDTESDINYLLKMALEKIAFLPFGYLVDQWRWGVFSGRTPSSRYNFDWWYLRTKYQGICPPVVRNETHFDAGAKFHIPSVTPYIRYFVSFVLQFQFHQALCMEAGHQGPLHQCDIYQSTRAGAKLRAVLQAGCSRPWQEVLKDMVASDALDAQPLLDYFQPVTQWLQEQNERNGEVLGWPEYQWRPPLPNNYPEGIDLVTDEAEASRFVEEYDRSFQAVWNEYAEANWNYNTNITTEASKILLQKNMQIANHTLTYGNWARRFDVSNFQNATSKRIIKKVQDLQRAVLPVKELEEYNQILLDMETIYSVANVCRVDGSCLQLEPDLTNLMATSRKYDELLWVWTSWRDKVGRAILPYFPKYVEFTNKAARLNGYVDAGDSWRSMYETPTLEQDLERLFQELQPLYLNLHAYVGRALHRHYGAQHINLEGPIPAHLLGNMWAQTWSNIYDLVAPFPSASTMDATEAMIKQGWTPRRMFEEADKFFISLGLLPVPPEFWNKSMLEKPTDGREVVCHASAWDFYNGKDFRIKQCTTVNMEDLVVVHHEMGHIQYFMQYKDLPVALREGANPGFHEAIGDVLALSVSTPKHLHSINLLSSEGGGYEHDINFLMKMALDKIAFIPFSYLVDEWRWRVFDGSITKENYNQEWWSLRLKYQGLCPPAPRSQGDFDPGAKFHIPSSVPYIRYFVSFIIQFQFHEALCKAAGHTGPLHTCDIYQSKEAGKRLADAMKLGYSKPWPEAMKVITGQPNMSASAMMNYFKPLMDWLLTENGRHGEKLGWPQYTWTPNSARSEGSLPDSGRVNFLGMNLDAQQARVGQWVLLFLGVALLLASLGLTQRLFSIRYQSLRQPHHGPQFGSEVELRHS
# Procedure: Biophys. Acta 293, 451 (1973). According to this method said compounds are dissolved at about 1 mM concentrations in phosphate buffer, externally cooled with ice. […] Said solutions are incubated at 37° for 30 minutes and combined with 0.75 ml of 0.6 N aqueous sodium hydroxide to stop further reaction. Then 100 μl of o-phthalaldehyde are added at room temperature, and 10 minutes later 100 μl of 6N hydrochloric acid. These samples are read against water in a spectrophotometer set at 360 nm, and the optical densities thereof estimated. They are corrected for the standard curve via a conversion factor expressing nanomoles of histidyl-leucine formed during said 30 minute incubation period. The results are plotted against drug concentration to determine the IC50, i.e., the drug concentration which gives half the activity of the control sample containing no drug.
smiles,measurement,setting,value
"CCOC(=O)[C@H](C)C[C@@H](C)C(=O)N1c2ccccc2C[C@H]1C(=O)O [1-(4-carboethoxy-2R,4R-dimethylbutanoyl)-indoline-2S-carboxylic acid]",decrease of heart rate,[1]; 30 mg/Kg p.o.,decrease heart rate
same,lowering of blood pressure,[1]; 30 mg/Kg p.o.,significantly lower blood pressure
same,inhibition of the pressor response following angiotensin I challenge,[2]; dose as low as 0.3 mg/Kg i.v.,about 50%
same,inhibition of the pressor response following angiotensin I challenge,[2]; dose as low as 4 mg/Kg p.o.,about 50%
CCOC(=O)[C@H](CCc1ccccc1)C[C@@H](C)C(=O)N1c2ccccc2C[C@H]1C(=O)O [1-(4-carboethoxy-2R-methyl-4R-phenethylbutanoyl)indoline-2S-carboxylic acid],decrease of heart rate,[1]; 10 mg/Kg p.o.,decrease heart rate
same,lowering of blood pressure,[1]; 10 mg/Kg p.o.,significantly lower blood pressure
"C[C@H](C[C@@H](C)C(=O)N1c2ccccc2C[C@H]1C(=O)O)C(=O)OCOC(=O)C(C)(C)C [1-[4-(pivaloyloxymethoxycarbonyl)-2R,4R-dimethylbutanoyl]-indoline-2S-carboxylic acid]",inhibition of the pressor response following angiotensin I challenge,[3],inhibit the pressor response
"C[C@H](C[C@@H](C)C(=O)N1c2ccccc2C[C@H]1C(=O)O)C(=O)OCC(=O)OC1CC2CCC1(C)C2(C)C (stereo partly drawn) [1-4-(l-bornyloxycarbonylmethoxycarbonyl)-2R,4R-dimethylbutanoyl-indoline-2S-carboxylic acid]",inhibition of the pressor response following angiotensin I challenge,[3],inhibit the pressor response
C[C@H](CCC(=O)O)C(=O)N1c2ccccc2C[C@H]1C(=O)O [1-(4-carboxy-2R-methylbutanoyl)-indoline-2S-carboxylic acid],IC50,[4],~40 nM
"C[C@H](C[C@@H](C)C(=O)N1c2ccccc2C[C@H]1C(=O)O)C(=O)O [1-(4-carboxy-2R,4R-dimethylbutanoyl)-indoline-2S-carboxylic acid]",IC50,[4],~30 nM
C[C@H](C[C@@H](CCc1ccccc1)C(=O)O)C(=O)N1c2ccccc2C[C@H]1C(=O)O [1-(4-carboxy-2R-methyl-4R-phenethylbutanoyl)indoline-2S-carboxylic acid],IC50,[4],~5 nM
O=C(O)CCCC(=O)N1c2ccccc2C[C@H]1C(=O)O [1-(4-carboxybutanoyl)-indoline-2S-carboxylic acid],IC50,[4],~300 nM
